Data as given in patent US20070225242A1, “Method and composition for treating and preventing tumor metastasis in vivo” (The Board of Trustees of the Leland Stanford Junior …, priority 2005, published 2007).

How the values were obtained:
MDA-MB 231 cells = MDA-MB 231 cells grown as orthotopic tumors in nude mice; lung and liver metastases
Protocol: In addition, MDA231 cells were grown as orthotopic tumors in nude mice. […] In FIGS. 5 A and B, data were obtained by microscopic quantification of metastases in lungs and livers stained with hematoxylin and eosin. […] 4 wk BAPN represents treatment started at week 4, etc.
To evaluate the therapeutic usefulness of inhibiting LOX, mice with control MDA231 tumors were treated with β-aminoproprionitrile (BAPN), a specific and irreversible inhibitor of LOX enzymatic activity. […] In FIG. 5C, metastases were counted weekly over six weeks for ten sections (n=5 mice). Solid line, with circles control lung; dashed line with triangles, control liver; solid line with squares, BAPN lung; dashed line with squares, BAPN liver. BAPN was started at week 2. Antibody doses: unlabelled, 20 mg kg^−1; asterisk, 4 mg kg^−1; two asterisks, 1 mg kg^−1. Control, n=10; LOX shRNA, n=10; 4 wk BAPN, n=10; 3 wk BAPN, n=3; 2 wk BAPN, n=3; LOX antibody, n=5. Treatment details are given in Methods.
MDA-MB 231 cells were grown as subcutaneous orthotopic tumors in 6-week-old female Nude (nu/nu) mice following intradermal injection of 1×10^7 cells in 0.1 ml of PBS into the mammary fat pad. Mice were sacrificed and tumors excised six weeks after inoculation. […] Lung and liver metastases were defined as gross lesions of at least 25 cells.

MDA231 and SiHa cells = assay: In vitro invasion assay (Matrigel-coated inserts); assay type: cell-based; conditions: various human cancer cells; 24 hr oxygen deprived
Protocol: The first step of the metastatic process is cell invasion. […] The invasion of various human cancer cells in vitro was examined. […] Because LOX is a copper-dependent enzyme that can act intracellularly or extracellularly, cells were treated with bathocuprione disulphonate (BCS), a copper chelator that cannot permeate the cell membrane.
Invasive behavior was examined in vitro as previously described. Briefly, cells were serum deprived for 24 h then 2.5×10^4 cells were seeded in triplicate on both Matrigel-coated and uncoated inserts, moved to chambers containing 750 μl of FBS as a chemo-attractant and incubated at in normoxic or oxygen deprived conditions for 24 hr. Treatments with beta-aminoproprionitrile or bathocuprione disulphonate (Sigma) were performed 24 h prior to serum deprivation, and continued throughout the experiment.

[1] = system: fibronectin null mouse embryonic fibroblasts; assay: In vitro invasion of fibronectin null cells; assay type: cell-based
Protocol: FIG. 8 is a graph (A) showing fibronectin null mouse embryonic fibroblasts subjected to in vitro invasion assays; untreated invasion was compared with that of cells transfected with LOX antisense oligos (Antisense) or incubated with BAPN, and (B) Adhesion of SiHa cells expressing DSRED to matrix was assessed over time.
A role for fibronectin (FN) was sought, because it was strongly associated with LOX expression in the breast cancer microarray data set that was analyzed (data not shown), is reported to regulate invasion, bind to integrins and interact with LOX, and is hypoxia induced. […] FAK phosphorylation could be induced in the cells expressing LOX shRNA by transfection with mature LOX (but not catalytically dead LOX), confirming a role for LOX in FAK phosphorylation. […] It is proposed here that this is because LOX increases fibrillar collagen, which is a ligand for b1 integrin. Other integrin pathways have been reported to mediate hypoxia-induced invasion.

[2] = system: A549 Non-Small Cell Lung Cancer Cells; assay: A549 cells injected into the tail vein of mice; assay type: in vivo; conditions: sacrificed at Day 22; BAPN 100 mg/kg daily
Protocol: Human lung cancer A549 cells (ATCC CCL 185), known to be highly metastatic, were generated to stably express shRNA targeting LOX, as described in Methods. […] 1×10^6 cells were injected into the tail vein of mice (all cells go to the lung).
Lungs from the dead mice bearing control tumors were formalin fixed, paraffin embedded and H&E stained to quantify lung tumors. Most lungs contained no tumors but all mice had numerous lymph node metastases and one had liver metastases. N=5 mice bearing lung tumors expressing LOX shRNA were sacrificed at Day 22. […] In addition, n=5 mice bearing control tumors treated daily with BAPN (100 mg/kg) were sacrificed at Day 22. […] The number of lung tumors for the A549 control animals is low because it is believed that the tumors metastasized out of the lung.
Wild-type or LOX shRNA A549 Non-Small Cell Lung Cancer Cells were injected into the tail vein of immune deficient mice and analyzed for survival differences for a period of 181 days. 100% of animals with wild-type tumors died within 35 days compared with only 40% of animals stably transfected with a shRNA to LOX. Some animals were allowed two weeks to develop metastases, and then were left untreated or treated twice weekly with 2 mg/kg of the LOX antibody in Example 7. FIG. 12 is a Kaplan-Meyer plot showing survival of the animals.

lung and bone metastases = assay: Lung and bone metastases in treated mice (FIG. 17); assay type: in vivo; conditions: FIGS. 17A-D
Protocol: FIGS. 17A-C are pictures of lungs from mice which were treated and untreated with LOX shRNA, a LOX antibody or BAPN, showing the effect of LOX treatment on metastases in lung.
FIGS. 17A-C are pictures of lungs from mice which were treated and untreated with LOX shRNA, the LOX antibody in Example 7 or BAPN, showing the effect of LOX treatment on metastases in lung.

RAW macrophages = assay: In vitro invasion of RAW macrophages towards conditioned media; assay type: cell-based; conditions: BAPN at 200 μM
Protocol: To determine if LOX levels affected the migration or invasion of BMDCs, we performed in vitro invasion assays using CM as a chemo-attractant (FIG. 21B). The migration of BMDCs was increased by FN, regardless of LOX.
In vitro migration and invasion of RAW macrophage cells towards CM (as chemo-attractant) was measured in a transwell assay as described above. Fibronectin (cFN, Sigma) was used at 25 μg/ml and BAPN at 200 μM. Matrigel plugs were formed by mixing 60% Matrigel with 40% CM prior to subcutaneous injection of 500 μl of the mixture. Plugs were removed 7 days later, fixed in OCT, sectioned and stained for B-cells (B220). Cells in 10 fields of view were counted at least 50 μm away from the edge of the plug.

[3] = BAPN 100 mg kg-1 daily i.p. or antibody 20 mg kg-1 twice weekly, control MDA231 tumors

## N#CCCN [BAPN, β-aminoproprionitrile]
MDA-MB 231 cells; 4 wk BAPN, treatment started at week 4
  effect on metastatic tumors already formed: eliminated tumors that had formed
MDA-MB 231 cells; [3]
  liver metastases: did not have any lung metastases or liver metastases
  lung metastases: did not have any lung metastases
MDA-MB 231 cells; BAPN treated mice
  metastatic lesions formed in orthotopic studies: completely absent
MDA-MB 231 cells; antibody up to 20 mg kg-1 twice weekly, BAPN 100 mg kg-1 daily i.p. for four, three or two weeks
  deleterious side effects: no deleterious side effects
MDA-MB 231 cells; inhibition of LOX with shRNA, BAPN or antibody
  primary tumor growth: slight effect on primary tumor growth
MDA-MB 231 cells; primary tumors from treated mice or tumors expressing LOX shRNA
  invasion of primary tumors: showed evidence of invasion
MDA-MB 231 cells; reduced antibody doses (4, 1 mg kg-1) or reduced periods of BAPN treatment
  liver metastases: no liver metastases
MDA-MB 231 cells; reduced antibody doses (4, 1 mg kg-1) or reduced periods of BAPN treatment, even when metastases had already formed
  lung metastases: significantly fewer lung metastases
MDA231 and SiHa cells
  increased invasion under hypoxia or anoxia: could be prevented
[1]
  invasion of FN-null cells: strongly inhibited invasion (similarly to BAPN addition)
[2]
  lung tumors: very few tumors
  metastases: no metastases
Lung and bone metastases
  lung and bone metastases: either stabilized disease or regression of lung and bone metastases
RAW macrophages
  increased BMDC invasion with hypoxic Wt CM: could be prevented
